What was measured:
ROS1-wt kinase domain = target: T1, ROS1-wt kinase domain (Homo sapiens, UniProt P08922); experiment: Biochemical kinase assay, ROS1-wt; details: 2 mM ATP substrate solution, read-out: Ki^app ROS1-wt
T1 construct: TRKA-wt (1 nM, BPS Bio, 40280) kinase domains in buffer; purchased Carna 08-163
Procedure: (§1) First, 250 nL of compound dissolved in DMSO (100-fold of the desired concentration) was dispensed into a 384-well plate. A 12.5 μL substrate solution containing ATP (2 mM) and fluorogenic phosphorylation substrate AQT0101 (26 μM for ALK and ROS1, AssayQuant) or AQT0104 (26 μM for TRKA, AssayQuant) in buffer (50 mM HEPES pH 7.5, 0.01% Brij-35, 0.5 mM EGTA, 10 mM MgCl2) was added and mixed thoroughly. Then, a 12.5 μL kinase solution containing ALK-wt (1.5 nM, Carna, 08-518), ALK ALK L1196M/G1202R (3 nM, SignalChem, A19-12NG), ROS1-wt (0.6 nM, Carna, 08-163), ROS1-G2032R (0.5 nM, SignalChem, R14-12BG), or TRKA-wt (1 nM, BPS Bio, 40280) kinase domains in buffer ([…] HEPES pH 7.5, 0.01% Brij-35, 2% glycerol, 0.4 mg/mL BSA, 0.5 mM EGTA, and 10 mM MgCl2) was added and mixed thoroughly. The plate was sealed and read by SpectraMax Paradigm at λ=485 nm every 2 minutes for 120 minutes at 30° C. Initial rates of reaction (v) were calculated from the change in fluorescence intensity over time during the initial, linear portion of the reaction. Finally, apparent inhibitory constants (Ki^app) were determined from regression of v and I (inhibitor concentration) to Morrison Equation (E=enzyme concentration): […]

TRKA-wt kinase domain = target: T2, TRKA-wt kinase domain (Homo sapiens, UniProt P04629); experiment: Biochemical kinase assay, TRKA-wt; details: 2 mM ATP substrate solution, read-out: Ki^app TRKA-wt
T2 construct: TRKA-wt (1 nM, BPS Bio, 40280) kinase domains in buffer; purchased BPS Bio 40280
Procedure: as §1

[1] = target: T3, ROS1-G2032R kinase domain (Homo sapiens, UniProt P08922, G2032R); experiment: Biochemical kinase assay, ROS1-G2032R; details: 2 mM ATP substrate solution, read-out: Ki^app ROS1-G2032R
T3 construct: TRKA-wt (1 nM, BPS Bio, 40280) kinase domains in buffer; purchased SignalChem R14-12BG
Procedure: as §1

ALK-wt kinase domain = target: T4, ALK-wt kinase domain (Homo sapiens, UniProt Q9UM73); experiment: Biochemical kinase assay, ALK-wt; details: 2 mM ATP substrate solution, read-out: Ki^app ALK-wt
T4 construct: TRKA-wt (1 nM, BPS Bio, 40280) kinase domains in buffer; purchased Carna 08-518
Procedure: as §1

[2] = target: T5, ALK L1196M/G1202R kinase domain (Homo sapiens, UniProt Q9UM73, G1202R/L1196M); experiment: Biochemical kinase assay, ALK L1196M/G1202R; details: 2 mM ATP substrate solution, read-out: Ki^app ALK-L1196M-G1202R
T5 construct: TRKA-wt (1 nM, BPS Bio, 40280) kinase domains in buffer; purchased SignalChem A19-12NG
Procedure: as §1

Compound	Ki (ROS1-wt kinase domain) [nM]	Ki (TRKA-wt kinase domain) [nM]	Ki [1] [nM]	Ki (ALK-wt kinase domain) [nM]	Ki [2] [nM]
Cc1nn(CC(F)F)c2c1Cc1cn(C)nc1-c1ccc(F)cc1[C@@H](C)Oc1cc-2cnc1N [Compound 79]	< 50	> 500	< 50	< 50	< 50
CCn1nc(C(C)C)c2c1-c1cnc(N)c(c1)O[C@H](C)c1cc(F)ccc1-c1nn(C)cc1C2 [Compound 153]	< 50	< 50	< 50	< 50	< 50
CC1Oc2cc(cnc2N)-c2c(cnn2C(F)F)Cn2ccnc2-c2ccc(F)cc21 (stereo not drawn) [Compound 44]	< 50	50 to 500	< 50	< 50	50 to 500
C[C@H]1Oc2cc(cnc2N)-c2c(nnn2CC2CC2)Cc2cc(C(F)F)nn2-c2ccc(F)cc21 [Compound 122]	< 50	50 to 500	< 50	< 50	< 50
CC1Oc2cc(cnc2N)-c2c(cnn2C)Cc2cnn(C)c2-c2ccc(F)cc21 (stereo not drawn) [Compound 2]	< 50	50 to 500	< 50	< 50	50 to 500
CCn1ncc2c1-c1cnc(N)c(c1)O[C@H](C)c1cc(F)ccc1-n1nccc1C2 [Compound 33]	< 50	< 50	< 50	< 50	< 50
C[C@H]1Oc2cc(cnc2N)-c2c(C#N)nn(C)c2Cc2ccccc2-c2ccc(F)cc21 [Compound 117]	< 50	> 500	50 to 500	< 50	< 50
CCc1noc2c1-c1cnc(N)c(n1)O[C@H](C)c1cc(F)ccc1-c1nn(C)cc1C2 [Compound 162]	< 50	< 50	< 50	< 50	< 50
C[C@H]1Oc2cc(cnc2N)-c2c(cnn2CC2CC2)Cc2cn(C(F)F)nc2-c2ccc(F)cc21 [Compound 160]	< 50	> 500	< 50	< 50	< 50
C[C@H]1Oc2cc(cnc2N)-c2c(nn(C)c2C#N)Cc2cccnc2-c2ccc(F)cc21 [Compound 112]	< 50	50 to 500	< 50	< 50	< 50
CC(C)n1nc2c(c1C#N)-c1cnc(N)c(c1)O[C@H](C)c1cc(F)ccc1-n1nccc1C2 [Compound 118]	< 50	< 50	> 500	< 50	50 to 500
CCn1ncc2c1-c1cnc(N)c(c1)O[C@H](C)c1cc(F)ccc1-c1ncoc1C2 [Compound 77]	< 50	50 to 500	< 50	< 50	< 50
CCn1ncc2c1-c1cnc(N)c(c1)OCc1cc(F)ccc1-c1nc(C)sc1C2 [Compound 89]	< 50	> 500	< 50	< 50	< 50
C[C@H]1Oc2cc(cnc2N)-c2c(cnn2CC(F)F)Cc2cn(C)nc2-c2ccc(F)cc21 [Compound 22]	< 50	> 500	< 50	< 50	< 50
CCn1ncc2c1-c1cnc(N)c(c1)O[C@H](C)c1cc(F)ccc1-n1nc(F)cc1C2 [Compound 71]	< 50	< 50	< 50	< 50	< 50
CC1Oc2cc(cnc2N)-c2c(nn(C)c2C#N)Cc2cnccc2-c2ccc(F)cc21 (stereo not drawn) [Compound 59]	< 50	50 to 500	50 to 500	< 50	> 500
Cc1nc2c(s1)Cc1nnn(CC3CC3)c1-c1cnc(N)c(c1)O[C@H](C)c1cc(F)ccc1-2 [Compound 114]	< 50	50 to 500	< 50	< 50	< 50
Cc1cc2n(n1)-c1ccc(F)cc1[C@@H](C)Oc1cc(cnc1N)-c1c(cnn1CC1CC1)C2 [Compound 109]	< 50	< 50	< 50	< 50	< 50
CCc1ncn2c1-c1cnc(N)c(c1)O[C@H](C)c1cc(F)ccc1-c1nn(C)cc1C2 [Compound 50]	< 50	< 50	< 50	< 50	< 50

More lines, now with the values ahead:

Ki (ROS1-wt kinase domain) [nM]	Ki (TRKA-wt kinase domain) [nM]	Ki [1] [nM]	Ki (ALK-wt kinase domain) [nM]	Ki [2] [nM]	Compound
< 50	> 500	50 to 500	< 50	< 50	CCc1nn(C)c2c1-c1cnc(N)c(c1)OCc1cc(F)ccc1-c1nn(C)cc1C2 [Compound 176]
< 50	> 500	< 50	< 50	< 50	C[C@H]1Oc2cc(cnc2N)-c2c(C#N)ncn2Cc2ccnn2-c2ccc(F)cc21 [Compound 58]
< 50	50 to 500	< 50	< 50	< 50	CCc1nn(C)c2c1-c1cnc(N)c(c1)OCc1cc(F)ccc1-c1nc(C)sc1C2 [Compound 175]
< 50	50 to 500	< 50	< 50	< 50	C[C@H]1Oc2cc(cnc2N)-c2c(nnn2CC2CC2)Cc2cc(C(F)(F)F)nn2-c2ccc(F)cc21 [Compound 128]
< 50	50 to 500	< 50	< 50	< 50	C[C@H]1Oc2cc(cnc2N)-c2c(C#N)cnn2Cc2cccnc2-c2ccc(F)cc21 [Compound 14]
< 50	> 500	< 50	< 50	< 50	Cc1nc(C#N)c2n1Cc1cccnc1-c1ccc(F)cc1[C@@H](C)Oc1cc-2cnc1N [Compound 18]
< 50	50 to 500	< 50	< 50	< 50	CCn1ncc2c1-c1cnc(N)c(c1)O[C@H](C)c1cc(F)ccc1-c1nocc1C2 [Compound 99]
< 50	< 50	50 to 500	< 50	< 50	CCn1nc2c(c1C#N)-c1cnc(N)c(c1)O[C@H](C)c1cc(F)ccc1-n1nccc1C2 [Compound 119]
< 50	50 to 500	< 50	< 50	< 50	C[C@H]1Oc2cc(cnc2N)-c2c(cnn2CC2CC2)Cc2cccnc2-c2ccc(F)cc21 [Compound 137]
< 50	> 500	< 50	< 50	< 50	CC1Oc2cc(cnc2N)-c2c(n[nH]c2C#N)Cc2cnn(C)c2-c2ccc(F)cc21 (stereo not drawn) [Compound 168]
< 50	50 to 500	< 50	< 50	< 50	Cc1nn(CC2CC2)c2c1Cc1cccnc1-c1ccc(F)cc1[C@@H](C)Oc1cc-2cnc1N [Compound 135]
< 50	> 500	< 50	< 50	< 50	C[C@H]1Oc2cc(cnc2N)-c2c(C#N)ncn2Cc2cccnc2-c2ccc(F)cc21 [Compound 12]
< 50	< 50	< 50	< 50	< 50	CCn1ncc2c1-c1cnc(N)c(c1)O[C@H](C)c1cc(F)ccc1-c1ncc(OC)cc1C2 [Compound 149]
< 50	50 to 500	< 50	< 50	< 50	CC1Oc2cc(cnc2N)-c2c(cnn2C2CCC2)Cn2ccnc2-c2ccc(F)cc21 (stereo not drawn) [Compound 37]
< 50	50 to 500	< 50	< 50	< 50	CCn1ncc2c1-c1cnc(N)c(c1)OCc1cc(F)ccc1-n1nc(C)cc1C2 [Compound 69]
< 50	> 500	50 to 500	< 50	< 50	CCn1nc(Br)c2c1-c1cnc(N)c(c1)O[C@H](C)c1cc(F)ccc1-c1nn(C)cc1C2 [Compound 148]
< 50	> 500	< 50	< 50	50 to 500	CCn1ncc2c1-c1cnc(N)c(n1)OC(C)c1cc(F)ccc1-c1c(cnn1C)C2 (stereo not drawn) [Compound 164]

Source: US11667649B2, “Heteroaromatic macrocyclic ether chemotherapeutic agents” (Nuvalent, Inc., priority 2020, dated 2023)
